The values below come from patent US20060142247A1, “Tricyclic heterocycles” (priority 2004, published 2006).

pIC50: −log10 of the molar value.

The experiment deals with HCT 116 cells. Kind of experiment: Viability assay HCT 116 cells (CellTiter-Glo). The format is cell-based. To be noted: Homo sapiens, HCT-116, 120 h, HCT 116 human colon carcinoma cells, 5 days incubation, CellTiter-Glo luminescence. As for the experimental part:
Viability Assay—HCT 116 Cells
A viability assay was performed using the CellTiter-Glo® Luminescent Cell Viability Assay (see Promega Corporation's Technical Bulletin No. 288, pp. 1-11 [revised 2/04] which is hereby incorporated by reference in its entirety). This assay is a homogeneous method of determining the number of viable cells in culture based on quantitation of the ATP present, an indicator of metabolically active cells. The assay is designed for use with multiwell formats, making it ideal for automated high-throughput screening (HTS), cell proliferation and cytotoxicity assays. The homogeneous assay procedure involves adding a single reagent (containing luciferase, luciferan substrate, and buffer) directly to cells cultured in serum-supplemented medium. Cell washing, removal of medium and multiple pipetting steps are not required. The system detects as few as 15 cells/well in a 384-well format in 10 minutes after adding reagent and mixing.
The homogeneous “add-mix-measure” format results in cell lysis and generation of a luminescent signal proportional to the amount of ATP present. The amount of ATP is directly proportional to the number of cells present in culture. The above-referenced assay generates a “glow-type” luminescent signal, produced by the luciferase reaction, which has a half-life generally greater than five hours, depending on cell type and medium used. The extended half-life eliminates the need to use reagent injectors and provides flexibility for continuous or batch mode processing of multiple plates. The unique homogeneous format avoids errors that may be introduced by other ATP measurement methods that require multiple steps.
HCT 116 cells (human colon carcinoma, ATCC-No. CCl-247) were cultivated in RPMI 1640 medium with GlutaMAX™ I (cell culture media that contains L-Alanyl-L-Glutamine [a stabilized a form/source of L-Glutamine] from Invitrogen, Cat-No. 61870-010), 2.5% Fetal Calf Serum (FCS, Sigma Cat-No. F4135 (FBS)); 100 Units/ml penicillin/100 μg/ml streptomycin (=Pen/Strep from Invitrogen Cat. No. 15140). For the assay the cells were seeded in 384 well plates, 1000 cells per well, in the same medium. The next day the test compounds were added in various concentrations ranging from 30 μM to 0.0015 μM (10 concentrations, 1:3 diluted). After 5 days the viability assay was done according to the instructions of the manufacturer. In brief: the cell-plate was equilibrated to room temperature for approximately 30 minutes and than the reagent (containing luciferase, luciferan substrate, and buffer) was added. The contents were carefully mixed for 15 minutes to induce cell lysis. After 45 minutes the luminescent signal was measured in Victor 2, (scanning multiwell spectrophotometer, Wallac).
Medium: RPMI 1640 with cell culture media containing L-Alanyl-L-Glutamine [GlutaMAX™ I (Invitrogen, Cat-Nr. 61870)], 5% FCS (Sigma Cat.-No. F4135), Pen/Strep (Invitrogen, Cat No. 15140). • HCT116 (ATCC-No. CCl-247): 1000 cells in 60 μl per well of 384 well plate (Greiner 781098, μClear-plate white) • After seeding incubate plates 24 h at 37° C., 5% CO2 2nd. Day: Induction (Treatment with Compounds, 10 Concentrations):
In order to achieve a final concentration of 30 μM as highest concentration […] of 10 mM compound stock solution were added directly to 163 μl media. Then step e) of the dilution procedure described below, was followed.
As for `CC1(C)C(=O)N(CCNC(=O)N2CCCC2)c2cc3[nH]c(-c4n[nH]c5ccccc45)nc3cc21` [Example 58, Pyrrolidine-1-carboxylic acid {2-[2-(1H-indazol-3-yl)-7,7-dimethyl-6-oxo-6,7-dihydro-3H-imidazo[4,5-f]indol-5-yl]-ethyl}-amide], the negative logarithm of the IC50 (pIC50) is 6.00 to 7.00.

`CCN1C(=O)C(C)(C)c2cc3[nH]c(-c4n[nH]c5ccc(NC(=O)c6ccccn6)cc45)nc3cc21` [Example 116, Pyridine-2-carboxylic acid [3-(5-ethyl-7,7-dimethyl-6-oxo-1,5,6,7-tetrahydro-imidazo[4,5-f]indol-2-yl)-1H-indazol-5-yl]-amide] showed a pIC50 of 6.00 to 7.00.

As for `CCN1C(=O)C(C)(C)c2cc3nc(-c4n[nH]c5ccc(C(=O)NCc6ccccc6)cc45)[nH]c3cc21` [Example 79, 3-(5-Ethyl-7,7-dimethyl-6-oxo-3,5,6,7-tetrahydro-imidazo[4,5-f]indol-2-yl)-1H-indazole-5-carboxylic acid benzylamide], the pIC50 was 6.00 to 7.00.

Consider `CCN1C(=O)C(C)(C)c2cc3[nH]c(-c4n[nH]c5ccc(NC(=O)OCc6ccccc6)cc45)nc3cc21` [Example 130, [3-(5-Ethyl-7,7-dimethyl-6-oxo-1,5,6,7-tetrahydro-imidazo[4,5-f]indol-2-yl)-1H-indazol-5-yl]-carbamic acid benzyl ester], for which the pIC50 is 6.00 to 7.00.

Turning to `CCN1C(=O)C(C)(C)c2cc3nc(-c4n[nH]c5ccc(C(=O)NCc6ccncc6)cc45)[nH]c3cc21` [Example 82, 3-(5-Ethyl-7,7-dimethyl-6-oxo-3,5,6,7-tetrahydro-imidazo[4,5-f]indol-2-yl)-1H-indazole-5-carboxylic acid (pyridin-4-ylmethyl)-amide; compound with acetic acid], the negative-log IC50 (pIC50) is 5.00 to 6.00.

For the compound `C[S+]([O-])CCN1C(=O)C(C)(C)c2cc3nc(-c4n[nH]c5ccccc45)[nH]c3cc21` (centres unmarked) [Example 64, 2-(1H-Indazol-3-yl)-5-(2-methanesulfinyl-ethyl)-7,7-dimethyl-5,7-dihydro-3H-imidazo[4,5-f]indol-6-one], the negative logarithm of the IC50 (pIC50) is 5.00 to 6.00.

In turn, `CCN1C(=O)C(C)(C)c2cc3nc(-c4n[nH]c5ccc(C(C)=O)cc45)[nH]c3cc21` [Example 103, 2-(5-Acetyl-1H-indazol-3-yl)-5-ethyl-7,7-dimethyl-5,7-dihydro-3H-imidazo[4,5-f]indol-6-one] had a pIC50 of 6.00 to 7.00.

In the case of `CC(C)N1C(=O)C(C)(C)c2cc3[nH]c(-c4n[nH]c5ccc(NS(=O)(=O)c6ccccc6S(C)(=O)=O)cc45)nc3cc21` [Example 143, N-[3-(5-Isopropyl-7,7-dimethyl-6-oxo-1,5,6,7-tetrahydro-imidazo[4,5-f]indol-2-yl)-1H-indazol-5-yl]-2-methanesulfonyl-benzenesulfonamide], the negative logarithm of the IC50 (pIC50) is 6.00 to 7.00.

The compound `CC(C)N1C(=O)C(C)(C)c2cc3[nH]c(-c4n[nH]c5ccc(NS(=O)(=O)c6ccccc6[N+](=O)[O-])cc45)nc3cc21` [Example 144, N-[3-(5-Isopropyl-7,7-dimethyl-6-oxo-1,5,6,7-tetrahydro-imidazo[4,5-f]indol-2-yl)-1H-indazol-5-yl]-2-nitro-benzenesulfonamide] had a pIC50 of 6.00 to 7.00.

`CCN1C(=O)C(C)(C)c2cc3nc(-c4n[nH]c5ccc(NS(=O)(=O)c6cc(F)ccc6F)cc45)[nH]c3cc21` [Example 141, N-[3-(5-Ethyl-7,7-dimethyl-6-oxo-3,5,6,7-tetrahydro-imidazo[4,5-f]indol-2-yl)-1H-indazol-5-yl]-2,5-difluoro-benzenesulfonamide] had a pIC50 of 6.00 to 7.00.

Consider `CCN1C(=O)C(C)(C)c2cc3nc(-c4n[nH]c5ccc(C#N)cc45)[nH]c3cc21` [Example 72, 3-(5-Ethyl-7,7-dimethyl-6-oxo-3,5,6,7-tetrahydro-imidazo[4,5-f]indol-2-yl)-1H-indazole-5-carbonitrile], for which the pIC50 is 6.00 to 7.00.
